Experimental data: patent publication US20050058658A1, “Compositions and methods for immunotherapy of human immunodeficiency virus (HIV)” (priority 2003, published 2005)

How the values were obtained:
[1] = test system: HIV-1IIIB infected CEM-SS cells; assay: MTT staining for cell viability, HIV-1 hollow fiber mouse model; format: in vivo
Protocol: (§1) The HIV-1 hollow fiber mouse model was performed (Hollingshead et al., Antiviral Res. 1995, 28:265-279; Buckheit et al., AIDS Res. Hum. Retroviruses 1997, 13:789-796; Xu et al., Bioorg. Med. Chem. Lett. 1999, 9:133-138; Quenelle et al., Antiviral Res. 1997, 35:123-129). In brief, CEM-SS cells were infected with HIV-1IIIB at a multiplicity of infection (MOI) of 0.0002 and sealed in hollow fibers (2×10^5 cells/fiber) immediately prior to implantation in the mice. Cell control hollow fibers (mock infected) and blank fibers (containing tissue culture medium without cells or virus) were prepared in a similar manner. Hollow fibers were implanted in the subcutaneous and intraperitoneal compartments of the mice (three fibers/compartment/mouse). Mice were treated with the E. tenella protein extract once daily (0.1 mL/10 g body weight) on day 0 (immediately prior to implantation of the fibers) and on days 1-6. Cell control, virus control and blank control mice were dosed similarly using 30 mM Hepes. AZT treated mice were also dosed similarly, however, dosing was performed twice daily at a concentration of 150 mg/kg (300 mg/kg/day). On day seven post implantation, the fibers, blood samples and peritoneal wash were collected from the mice. The viability of the infected CEM-SS cells collected from hollow fibers was determined using an MTT dye conversion assay. Viral reverse transcriptase assay and p24 (capsid) antigen quantification were performed on the hollow fiber cultures as well as the blood samples and the peritoneal wash. Of the three fibers collected from each compartment (intraperitoneal and subcutaneous), one fiber was used for analysis of viral reverse transcriptase and p24, while the remaining two fibers used to analyze cell viability by MTT dye reduction. The experimental treatment groups used in the study included the following: • 1. E. tenella protein extract concentration #1 (virus infected fibers; 7 mice) • 2. E. tenella protein extract concentration #2 (virus infected fibers; 7mice) • 3. E. tenella protein extract concentration #3 (virus infected fibers; 7 mice) • 4. AZT; positive control antiviral drug (virus infected fibers; 7 mice) • 5. Virus Control, no drug treatment (treated with vehicle; virus infected fibers; 7 mice) • 6. Cell Control, no drug treatment (treated with vehicle; mock-infected fibers; 7 mice) • 7. Blank Control, no drug treatment (treated with vehicle; “empty” fibers; 2 mice) MTT Staining for Cell Viability:
The viability of cells in the hollow fiber cultures was measured using an MTT dye reduction assay. MTT is a tetrazolium dye that is metabolized by the mitochondria enzymes of metabolically active cells to yield a […] formazan product that can be detected spectrophotometrically. Following collection from the animals, hollow fibers were placed individually into the wells of a 6-well tissue culture plate containing 2 mL of pre-warmed (37° C.) RPMI medium (without phenol red) supplemented with 20% fetal bovine serum. Cells were assayed to viability by adding 180 μL of MTT stock solution (pre-warmed to 37° C.) to each of the wells, followed by incubation for 4 hours at 37° C. in a 5% CO2 atmosphere, removal of medium/MTT solution, and addition of 4 mL of 2.5% Protamine Sulfate (PMS). […] Subsequently, 150 μL of each sample was transferred to a 96 well plate and the optical density of the samples read at 570/650 nm using a Molecular Devices Vmax or SpectraMaxPlus plate reader.

[2] = test system: HIV-1IIIB infected CEM-SS cells; assay: Reverse transcriptase assay, HIV-1 hollow fiber mouse model; format: in vivo; conditions: 150 mg/kg twice daily (300 mg/kg/day), day 7
Protocol: as §1
A microtiter plate-based reverse transcriptase (RT) reaction was utilized (Buckheit et al., AIDS Research and Human Retroviruses 1991, 7:295-302). Tritiated thymidine triphosphate (^3H-TTP 80 Ci/mmol, NEN) was received in 1:1 dH2O: Ethanol at 1 mCi/mL. Poly rA:oligo dT template:primer (Pharmacia) was prepared as a stock solution by combining 150 μL poly rA (20 mg/mL) with 0.5 mL oligo dT (20 units/mL) and 5.35 mL sterile dH2O followed by aliquoting (1.0 mL) and storage at −20° C. The RT reaction buffer was prepared fresh on a daily basis and consisted of 125 μL 1.0 M EGTA, 125 μL dH2O, 125 μL 20% Triton X100, 50 μL 1.0 M Tris (pH 7.4), 50 μL 1.0 M DTT, and 40 μL 1.0 M MgCl2. The final reaction mixture was prepared by combining 1 part ^3H-TTP, 4 parts dH2O, 2.5 parts poly rA:oligo dT stock and 2.5 parts reaction buffer. Ten microliters of this reaction mixture was placed in a round bottom microtiter plate and 15 μL of supernatant resulting from the lysis of cells collected from the fibers (see the section describing the p24 Antigen ELISA above) or serum or peritoneal wash (serum and peritoneal wash samples were clarified by centrifugation without further manipulation prior to analysis) was added and mixed. The plate was incubated at 37° C. for 60 minutes. […]

[3] = test system: HIV-1IIIB infected CEM-SS cells; assay: p24 antigen ELISA, HIV-1 hollow fiber mouse model; format: in vivo; conditions: 150 mg/kg twice daily (300 mg/kg/day), day 7
Protocol: as §1
Following collection of the fibers from the mice, detection of p24 antigen was performed according to the manufacturer's instructions. Individual fibers were cut open and placed in Eppendorf tubes and cells lysed by the addition of 250 μl of lysis buffer (0.02 M Tris-HCl pH 7.5, 0.05 M NaCl, 0.5% Triton X-100), incubation at room temperature for 30 minutes, vortexing, followed by centrifugation at 14,000 rpm for four minutes in a microcentrifuge. Serum and peritoneal wash samples were clarified by centrifugation without further manipulation prior to analysis. All p24 determinations on the resulting supernatants were performed following serial dilution of the samples to ensure absorbances in the linear range of the standard p24 antigen curve. The standard curve is produced using manufacturer-supplied standards and instructions. Data are obtained by spectrophotometric analysis at 450/570 nm using a Molecular Devices Vmax or SpectraMaxPlus plate reader. Final concentrations are calculated from the optical density values using the Molecular Devices SoftMax Pro software package and expressed in pg/ml p24 antigen.

[4] = test system: experimental autoimmune encephalomyelitis (EAE); assay: Experimental autoimmune encephalomyelitis (EAE) model; format: in vivo, SJL mice; conditions: 5 mg s.c. daily for 5 days from day 10
Protocol: This hyposthesis was tested in the experimental autoimmune encephalomyelitis (EAE) model in SJL mice. EAE is induced in mice by immunization with spinal cord derived myelin basic protein which induces a disease in the mice which is very similar to multiple schlerosis (MS) in humans.
Treatments were given daily for 5 days. Linomide is a drug that is known to inhibit EAE and is used as a positive control. […] Severity of EAE is measured by means of the EAE score which starts at 0 for normal and increases to a score of 5 when death occurs. For ethical reasons mice are sacrificed when a score of 4 is reached.

[5] = 150 mg/kg twice daily (300 mg/kg/day), day 7
[6] = 150 mg/kg twice daily (300 mg/kg/day), fibers day 7, optical density 570/650 nm

`Cc1cn([C@H]2C[C@H](N=[N+]=[N-])[C@@H](CO)O2)c(=O)[nH]c1=O` [AZT, 3′-Azido-3′-deoxythymidine] was tested, and the “MTT Intraperitoneal Fiber, % CPE Reduction, % Value” [1, 5] was 0.00%, the “MTT Subcutaneous Fiber, % CPE Reduction, % Value” [1, 5] was 6.83% and the “MTT Intraperitoneal Fiber, Average” value [1, 6] was 1.11. For the same compound, the “MTT Subcutaneous Fiber, Average” value [1, 6] was 0.96, the “Effect on cytopathic effect (CPE) of HIV-1IIIB on CEM-SS cells” value ([1]; hollow fiber cultures, all concentrations tested) was “did not have an effect on this viral endpoint” and the “Reverse Transcriptase Intraperitoneal Fiber, % Virus Control, % Value” [2] was 52.8%. The “Reverse Transcriptase Intraperitoneal Fiber, Average” value [2] was 6372 CPM, the “Reverse Transcriptase Peritoneal Wash, % Virus Control, % Value” [2] was 25.7% and the “Reverse Transcriptase Peritoneal Wash, Average” value [2] was 392 CPM. The “Reverse Transcriptase Serum, % Virus Control, % Value” [2] was 52.8%, the “Reverse Transcriptase Serum, Average” value [2] was 403 CPM and the “Reverse Transcriptase Subcutaneous Fiber, % Virus Control, % Value” [2] was 71.9%. The “Reverse Transcriptase Subcutaneous Fiber, Average” value [2] was 10178 CPM, the “p24 Intraperitoneal Fiber, % Virus Control, % Value” [3] was 99.1% and the “p24 Intraperitoneal Fiber, Average” value [3] was 215136 pg/mL. For the same compound, the “p24 Peritoneal Wash, % Virus Control, % Value” [3] was 92.8%, the “p24 Peritoneal Wash, Average” value [3] was 109 pg/mL and the “p24 Serum, % Virus Control, % Value” [3] was 37.0%. For the same compound, the “p24 Serum, Average” value [3] was 18 pg/mL, the “p24 Subcutaneous Fiber, % Virus Control, % Value” [3] was 110.3% and the “p24 Subcutaneous Fiber, Average” value [3] was 312334 pg/mL.

For `CN(C(=O)c1c(O)c2ccccc2n(C)c1=O)c1ccccc1` [Linomide], the “Day 15 EAE Score ± SD” value [4] was 0.6 ± 1.3.
